Reference: US20090047379A1, “Benzamide Compounds Useful as High Potency Sweet Taste Enhancers” (priority 2007, published 2009)
Where a SMILES comes first, the peptide text is derived from it.

Experiments:
Assay type in all cases: in vivo, human
[1] = system: sweet taste; test: Sweetener blends with Ace-K or Sucralose, trained technical panel (Example 16); conditions: for overall group rating: scale 1-9, 9 the best; for blend rating: scale 1 to 9
Procedure: A comparison of the synergistic effects the Benzamide, 2,3,4,5,6-Pentafluoro-N-(2-methylcyclohexyl)—(sweetener A) in combination with acesulfame-k, herein referred to as Ace-K and Sucralose was compared with the effects of Benzamide, 2,3,5,6-tetrafluoro-4-methyl-N-(2-methylcyclohexyl)—(sweetener B) in combination with the same commercial sweeteners. The samples were evaluated by a trained technical panel. The first sample was Ace-K at 100 ppm.
A similar evaluation with done with Sucralose as the commercial sweetener. An evaluation of Sucralose at 60 ppm was done in plain water. […] A comparison of the synergistic effects of sweetener A at 3 ppm in combination with Sucralose at 60 ppm was evaluated against sweetener B in the same combination. […] The blends were evaluated on a scale for 1 to 9.

[2] = system: sweet taste; test: Comparisons of taste quality and intensity, solutions in water (Example 12, Table I); conditions: for Other taste attributes: in vivo
Text: Sweetness is rapid and fades quickly on rinsing of the mouth.

[3] = system: sweet taste; test: Structure activity example, tasting of analogues (Example 11); conditions: when tasted
Text: During our invention process, we observed repeatedly that a small structural difference can cause dramatic change in the taste. For example, compound N-(2-methylcyclohexyl)-2,3,4,5,6-pentafluoro-benzamide is very sweet; moving the methyl group to the 4-position render the resulting N-(4-methylcyclohexyl)-2,3,4,5,6-pentafluoro-benzamide bitter; moving the methyl group to nitrogen render the resulting N-cyclohexyl-2,3,4,5,6-pentafluoro-N-methyl-benzamide tasteless.
There is however an underlying theme, that being that an amide functionality is important.

[4] = system: sweet taste; test: Comparison of sweetness at 5 ppm in plain water (Example 13)
Procedure: Two molecules were compared to each other based on sweetness. Both molecules were evaluated at 5 ppm in plain water.

[5] = system: sweet taste; test: Cola beverage containing Aspartame, trained technical panel (Example 15); conditions: for sweetness profile rating: scale 0-9, 9 the best
Procedure: The sweeteners Benzamide, 2,3,5,6-[…]-4-methyl-N-(2-methylcyclohexyl)—(sweetener A) and Benzamide, 2,3,4,5,6-pentafluoro-N-(2-methylcyclohexyl)—(sweetener B) were both evaluated in a cola beverage that contained Aspartame. The purpose of this experiment was to evaluate the sweeteners profile in a sweetener blend. There were three separate samples evaluated, see Table 3. The samples were evaluated by a trained technical panel. The sweetness profile was rated on a scale from 0-9, with 0 being the worst and 9 the best. The first sample, Sample A, containing only aspartame at 300 ppm was rated a 4. […] The second sample, Sample B, contained Aspartame at 300 ppm and sweetener A at 3 ppm. […] The rating for sample B was a 9 for sweetness. The third sample, sample C, contained Aspartame at 300 ppm and sweetener B at 3 ppm.

[6] = system: sweet taste; test: Sweetness enhancement of an 8 brix beverage, trained technical panel (Example 14); conditions: 4 ppm in 8 brix beverage; for sweet intensity rating: ten point scale, nine most sweetness, zero no sweetness
Procedure: An 8 brix, the measurement of the mass ratio of dissolved sugar in a liquid, beverage was prepared to evaluate two sweeteners, 2,3,5,6-tetrafluoro-4-methyl-N-(2-methylcyclohexyl)benzamide-(sweetener A) and N-(2-methylcyclohexyl)-2,3,4,5,6 pentafluoro-benzamide)—(sweetener B). The objective was to determine if the sweeteners enhanced an 8 brix beverage to make it taste more similar to a 10 brix beverage. There were four samples evaluated an 8 brix beverage blank, sweetener A in 8 brix beverage, sweetener B in 8 brix beverage and a 10 brix beverage blank. Both the sweeteners were evaluated at 4 ppm. The beverage samples were evaluated by a trained technical panel. The panel evaluated the sweetness profile and the sweet intensity. The intensity was rated on a ten point scale with nine being the most sweetness and zero having no sweetness. […] The sweet intensity ratings were as follows (see Table 2) sample A rated 6, sample B rated 7, sample C rated 9 and sample D rated 9.

[7] = system: sweet taste; test: Sweetness in muffins, trained technical panel (second Example 14); conditions: 10 ppm in muffin; for sweetness intensity rating: scale 0-9, 9 most sweetness
Procedure: The sweeteners 2,3,5,6-tetrafluoro-4-methyl-N-(2-methylcyclohexyl)benzamide (sweetener A) and N-(2-methylcyclohexyl)-2,3,4,5,6 pentafluoro-benzamide -(sweetener B) were both evaluated in muffins. They were evaluated along with a blank muffin sample. Both sweeteners were evaluated at 10 ppm in the muffin. The samples were evaluated by a trained technical panel. They were asked to evaluate the profile and to give a rating between 0-9 on the sweetness intensity. The rating scale ranged from zero for no sweetness to 9 for the most sweetness. […] The samples were rating on sweet intensity (see Table 3). The samples ratings were as follows; sample A rated 5, sample B rated 6, sample C rated 8.

[8] = 3 ppm in combination with Ace-K at 100 ppm
[9] = 3 ppm in combination with Sucralose at 60 ppm
[10] = 3 ppm with Aspartame 300 ppm in cola beverage
[11] = Aspartame 300 ppm only in cola beverage

## OC[C@H]1O[C@H](O[C@]2(CCl)O[C@H](CCl)[C@@H](O)[C@@H]2O)[C@H](O)[C@@H](O)[C@H]1Cl [Sucralose]
[1]; Sucralose at 60 ppm alone in plain water
  taste comments: sweet onset, mouthwatering, sweetness lingers

## CC(C)C(C)NC(=O)c1c(F)c(F)c(F)c(F)c1F (stereo not shown) [Compound 53, N-(1,2-dimethylpropyl)-2,3,4,5,6-pentafluoro-benzamide]
[2]
  Other taste attributes: Clean

## CC1=CC(=O)[N-]S(=O)(=O)O1.[K+] [Ace-K, acesulfame-k]
[1]; Ace-K at 100 ppm alone
  taste comments: delayed sweetness, some off notes, astringent and bitter

## CC1CCC(NC(=O)c2c(F)c(F)c(F)c(F)c2F)CC1 (stereo not shown) [N-(4-methylcyclohexyl)-2,3,4,5,6-pentafluoro-benzamide]
[3]
  taste: bitter

## OC[C@H]1O[C@@](CO)(O[C@H]2O[C@H](CO)[C@@H](O)[C@H](O)[C@H]2O)[C@@H](O)[C@@H]1O [Sucrose, reference compound]
[2]; 4% sucrose in water
  taste description: moderate sweetness and mouthfeel
[2]; 8% sucrose in water
  taste description: good level sweetness and excellent mouthfeel

## CC1CCCCC1NC(=O)c1c(F)c(F)c(F)c(F)c1F (stereo not shown) [Example 6, N-(2-methylcyclohexyl)-2,3,4,5,6-pentafluoro-benzamide]
[4]
  taste description: mouth coating, intense sweet, no bitter notes, and had a fast sweetness onset
[2]; 1 ppm in water
  equal in sweetness to sucrose: 1-2 % sucrose
  taste description: sweetness is not immediate but builds after a few seconds but is very clean, lacking bitterness, off-taste or negative attribute
[2]; 4% sucrose plus 1 ppm in water
  rated as sweet as sucrose: 8 % sucrose
  taste description: longer lasting and considered to be quite acceptable sweet character lacking bitterness
[2]; 4% sucrose plus 5 ppm in water
  taste description: too sweet and too long lasting
[2]; 5 ppm in water
  equal in strength to sucrose: 4-6 % sucrose
  sweet character lasts longer than sucrose: up to 10 times longer
  taste description: sweetness is not immediate but is very clean, lacking bitterness, off-taste or negative attribute
[2]
  Other taste attributes: Clean
[2]; low concentrations <4 ppm
  effect in combination with sucrose: synergistic effect with sucrose
[3]
  taste: very sweet
[1]; [8]
  taste comments: strong sweetness upfront, bitter, enhanced bitterness in combination
  overall group rating: 9
[1]; [9]
  taste comments: enhanced sweetness, more rounded, no bitter, very strong sweet profile
  blend rating: 9
[5]; [10]
  sweetness comments: sweetness had more impact than Sample A, but not as intense as Sample B
  sweetness profile rating: 6
[6]
  sweetness profile comments: sweeter, more mouthwatering, had a slight astringent aftertaste and had a similar sweetness profile to the 10 brix beverage
  sweet intensity rating: 9
[7]
  profile description: sweeter, long lasting sweetness and mouthwatering
  sweetness intensity rating: 8

## Cc1c(F)c(F)c(C(=O)N[C@H](C)C2CCCCC2)c(F)c1F [Compound 40, (R)-N-1-cyclohexylethyl-2,3,5,6-tetrafluoro-4-methyl-benzamide]
[2]
  Other taste attributes: Bitter at 20 ppm
[2]; sweetness onset and duration relative to sucrose
  Profile: Poor sweet taste profile

## CC1CCCCC1OC(=O)c1c(F)c(F)c(F)c(F)c1F (stereo not shown) [2,3,4,5,6-pentafluorobenzoic acid 2-methylcyclohexyl ester]
[3]
  taste: burning sensation

## O=C(N[C@H]1CCCc2ccccc21)c1ccoc1 (single isomer, unassigned) [1S isomer, reference compound]
[2]
  Other taste attributes: 1S isomer is tasteless

## Cc1c(F)c(F)c(C(=O)NC2CCCCC2C)c(F)c1F (stereo not shown) [2,3,5,6-tetrafluoro-4-methyl-N-(2-methylcyclohexyl)benzamide]
[4]
  taste description: mild vegetative, green and very bitter with some sugary notes
[1]; [8]
  taste comments: delayed sweetness, astringency, not as strong a sweetness as the combination with sweetener A
  overall group rating: 7
[1]; [9]
  taste comments: not as sweet as the combination with sweetener A, delayed sweetness
  blend rating: 7
[5]; [10]
  sweetness comments: sweetness was well rounded, lingered, and gave mouthfeel
  sweetness profile rating: 9
[6]
  sweetness profile comments: sour and slightly sweeter than the 8 brix blank
  sweet intensity rating: 7
[7]
  profile description: slightly sweet, not much difference in profile to the blank muffin sample
  sweetness intensity rating: 6

## CN(C(=O)c1c(F)c(F)c(F)c(F)c1F)C1CCCCC1 [N-cyclohexyl-2,3,4,5,6-pentafluoro-N-methyl-benzamide]
[3]
  taste: tasteless

## COC(=O)[C@H](Cc1ccccc1)NC(=O)[C@@H](N)CC(=O)O [Aspartame] (H-Asp-Phe-OMe)
[5]; [11]
  sweetness comments: sweetness in the beverage spiked and then disappeared
  sweetness profile rating: 4

## Cc1c(F)c(F)c(C(=O)NC(C)C(C)C)c(F)c1F (stereo not shown) [2,3,5,6-tetrafluoro-4-methyl-N-(1,2-Dimethyl-propyl)benzamide, reference compound]
[2]
  Other taste attributes: Clean

## Cc1cc(C)c(C(=O)NC(C)C(C)(C)C)c(C)c1 (stereo not shown) [Example 2, 2,4,6-trimethyl-N-(1,2,2-trimethylpropyl)-benzamide]
[2]
  Other taste attributes: Clean

## O=C(N[C@@H]1CCCc2ccccc21)c1ccoc1 [N-[(1R)-1,2,3,4-tetrahydro-1-naphthalenyl]-3-furancarboxamide, reference compound]
[2]
  Other taste attributes: Clean
